Test results from article PMC12155096 (International Journal of Molecular Sciences, 2025).
Structures can show the parent of a compound that is named as a salt. Where two headings read alike, the source gives them in different places.

How the values were obtained:
human CYP2C19 [1] = molecular target: T1, human CYP2C19 (Homo sapiens, UniProt P33261); details: for CYP2C19 Efficacy (in parenthesis): human
[2] = molecular target: Photinus pyralis (firefly) luciferase (Photinus pyralis, UniProt P08659); assay: biochemical; format: biochemical
human CYP1A2 [3] = molecular target: T2, human CYP1A2 (Homo sapiens, UniProt P05177); assay: biochemical
T2 sequence (P05177 1-516): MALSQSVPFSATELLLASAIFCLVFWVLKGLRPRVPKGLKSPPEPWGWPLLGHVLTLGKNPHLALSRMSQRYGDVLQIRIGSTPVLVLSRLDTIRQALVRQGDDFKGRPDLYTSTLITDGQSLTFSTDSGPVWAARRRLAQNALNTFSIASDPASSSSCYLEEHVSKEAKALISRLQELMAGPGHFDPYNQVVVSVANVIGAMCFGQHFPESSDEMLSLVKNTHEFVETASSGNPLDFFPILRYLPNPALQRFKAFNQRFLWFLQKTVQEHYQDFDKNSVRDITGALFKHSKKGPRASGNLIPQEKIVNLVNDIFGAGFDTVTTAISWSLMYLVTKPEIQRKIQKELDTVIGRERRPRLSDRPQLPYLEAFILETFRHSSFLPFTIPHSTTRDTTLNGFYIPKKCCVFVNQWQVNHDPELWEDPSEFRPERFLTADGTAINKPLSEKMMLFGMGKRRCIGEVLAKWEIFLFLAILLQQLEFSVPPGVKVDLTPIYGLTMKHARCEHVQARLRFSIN

human CYP1A2 [4] = molecular target: T2, human CYP1A2; details: human
CYP3A4 = CYP3A4 (Homo sapiens, UniProt P08684)
human CYP2C9 [5] = molecular target: T3, human CYP2C9 (Homo sapiens, UniProt P11712); details: for CYP2C9 Efficacy (in parenthesis): human
human CYP2D6 [6] = molecular target: T4, human CYP2D6 (Homo sapiens, UniProt P10635)
human CYP2C19 [7] = molecular target: T1, human CYP2C19; assay: biochemical
human CYP2C9 [8] = molecular target: T3, human CYP2C9; assay: biochemical; details: for IC50: CYP2C9 IC50 (half-maximal inhibitory concentration)
human CYP2D6 [9] = molecular target: T4, human CYP2D6; assay: biochemical
[10] = CYP1A2 IC50 (half-maximal inhibitory concentration)
[11] = CYP2C19 IC50 (half-maximal inhibitory concentration)
[12] = CYP2D6 AC50 (half-maximal activity concentration)
[13] = CYP2D6 IC50 (half-maximal inhibitory concentration)

T3 sequence (P11712 whole entry): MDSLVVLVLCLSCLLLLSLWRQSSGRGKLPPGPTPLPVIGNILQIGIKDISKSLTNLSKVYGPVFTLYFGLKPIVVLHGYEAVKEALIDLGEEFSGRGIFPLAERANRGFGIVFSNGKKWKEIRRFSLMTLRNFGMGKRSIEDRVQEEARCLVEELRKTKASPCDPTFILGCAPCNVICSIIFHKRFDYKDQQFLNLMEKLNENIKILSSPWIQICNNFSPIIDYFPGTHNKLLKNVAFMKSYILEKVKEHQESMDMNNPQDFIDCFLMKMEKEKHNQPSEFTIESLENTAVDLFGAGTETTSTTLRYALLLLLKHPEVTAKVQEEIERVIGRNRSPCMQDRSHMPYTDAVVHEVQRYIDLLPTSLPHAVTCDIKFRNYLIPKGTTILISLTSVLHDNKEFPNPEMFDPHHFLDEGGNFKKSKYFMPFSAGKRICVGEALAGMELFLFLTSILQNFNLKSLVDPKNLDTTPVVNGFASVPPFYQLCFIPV
T1 sequence (P33261 whole entry): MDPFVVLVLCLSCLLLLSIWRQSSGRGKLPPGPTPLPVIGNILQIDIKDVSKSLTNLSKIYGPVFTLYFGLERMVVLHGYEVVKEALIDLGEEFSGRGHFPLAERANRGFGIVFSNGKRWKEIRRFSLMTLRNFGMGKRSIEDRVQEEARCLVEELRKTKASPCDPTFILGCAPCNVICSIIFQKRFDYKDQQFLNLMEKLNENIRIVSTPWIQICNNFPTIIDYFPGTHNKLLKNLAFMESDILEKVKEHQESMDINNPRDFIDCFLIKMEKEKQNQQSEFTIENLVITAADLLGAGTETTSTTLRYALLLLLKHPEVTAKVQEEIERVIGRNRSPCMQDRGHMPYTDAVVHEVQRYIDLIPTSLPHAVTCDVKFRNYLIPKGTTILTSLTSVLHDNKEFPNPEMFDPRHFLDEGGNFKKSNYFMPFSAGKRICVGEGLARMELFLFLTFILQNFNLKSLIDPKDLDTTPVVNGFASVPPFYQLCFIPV
Sequence of CYP3A4 (P08684 whole entry): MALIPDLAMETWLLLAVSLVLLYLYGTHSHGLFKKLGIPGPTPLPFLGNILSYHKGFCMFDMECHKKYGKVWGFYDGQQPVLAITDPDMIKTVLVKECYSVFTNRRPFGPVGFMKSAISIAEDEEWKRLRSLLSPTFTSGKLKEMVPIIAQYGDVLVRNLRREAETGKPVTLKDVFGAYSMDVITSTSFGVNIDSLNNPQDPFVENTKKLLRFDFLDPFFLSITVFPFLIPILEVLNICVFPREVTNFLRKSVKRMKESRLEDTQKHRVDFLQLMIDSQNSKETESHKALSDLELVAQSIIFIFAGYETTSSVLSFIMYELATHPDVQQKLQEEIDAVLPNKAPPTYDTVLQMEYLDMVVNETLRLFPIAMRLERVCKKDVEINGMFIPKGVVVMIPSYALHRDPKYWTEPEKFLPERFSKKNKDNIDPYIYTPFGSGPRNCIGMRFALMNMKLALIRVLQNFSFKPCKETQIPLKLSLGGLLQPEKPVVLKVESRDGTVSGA
Sequence of Photinus pyralis (firefly) luciferase (P08659 whole entry): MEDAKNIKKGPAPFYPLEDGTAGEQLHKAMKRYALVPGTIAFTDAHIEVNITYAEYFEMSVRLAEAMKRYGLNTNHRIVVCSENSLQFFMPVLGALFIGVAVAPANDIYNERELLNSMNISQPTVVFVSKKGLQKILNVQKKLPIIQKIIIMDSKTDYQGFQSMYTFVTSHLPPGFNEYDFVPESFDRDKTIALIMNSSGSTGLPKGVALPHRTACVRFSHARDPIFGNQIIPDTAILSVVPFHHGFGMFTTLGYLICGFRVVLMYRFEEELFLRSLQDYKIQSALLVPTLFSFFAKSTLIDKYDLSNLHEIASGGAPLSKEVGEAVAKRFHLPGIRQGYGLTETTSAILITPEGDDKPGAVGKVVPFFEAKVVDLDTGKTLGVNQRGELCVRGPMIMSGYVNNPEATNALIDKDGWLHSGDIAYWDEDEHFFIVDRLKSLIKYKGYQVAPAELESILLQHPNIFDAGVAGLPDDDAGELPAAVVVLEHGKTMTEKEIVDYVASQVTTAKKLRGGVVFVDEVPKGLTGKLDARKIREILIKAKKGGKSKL
T4 sequence (P10635 whole entry): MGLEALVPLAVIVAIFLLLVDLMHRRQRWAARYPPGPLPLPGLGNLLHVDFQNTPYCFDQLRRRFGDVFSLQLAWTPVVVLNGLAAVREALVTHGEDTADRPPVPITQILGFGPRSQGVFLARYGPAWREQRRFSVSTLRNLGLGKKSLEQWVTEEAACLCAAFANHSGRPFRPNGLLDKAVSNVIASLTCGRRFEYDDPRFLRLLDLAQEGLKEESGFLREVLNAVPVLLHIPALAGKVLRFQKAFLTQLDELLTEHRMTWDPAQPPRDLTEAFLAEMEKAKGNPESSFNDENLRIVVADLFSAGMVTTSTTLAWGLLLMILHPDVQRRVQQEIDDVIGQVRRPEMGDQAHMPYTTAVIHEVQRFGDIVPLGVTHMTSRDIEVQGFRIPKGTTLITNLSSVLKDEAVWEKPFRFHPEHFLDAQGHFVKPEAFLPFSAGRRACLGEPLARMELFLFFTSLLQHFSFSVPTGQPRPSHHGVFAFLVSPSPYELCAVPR

## Nc1c(Br)cc(Br)c2c1C(=O)c1ccccc1C2=O [1-Amino-2,4-dibromoanthraquinone]
Human CYP2C19 [1]
  CYP2C19 IC50 (half-maximal inhibitory concentration): Inactive
[2]
  Luciferase IC50 (half-maximal inhibitory concentration): Inactive
Human CYP1A2 [3]; [10]
  IC50: 140 nM
Human CYP1A2 [4]
  CYP1A2 Efficacy (in parenthesis): 0.14 ± 0.03 (-99 ± 12) %
CYP3A4
  CYP3A4 IC50 (half-maximal inhibitory concentration): Inactive
Human CYP2C9 [5]
  CYP2C9 IC50 (half-maximal inhibitory concentration): Inactive
Human CYP2D6 [6]
  CYP2D6 IC50 (half-maximal inhibitory concentration): Inactive

## O=C1c2ccccc2C(=O)c2cc(Cl)ccc21 [2-Chloroanthraquinone]
Human CYP2C19 [1]
  CYP2C19 IC50 (half-maximal inhibitory concentration): Inactive
[2]
  Luciferase IC50 (half-maximal inhibitory concentration): Inactive
Human CYP1A2 [3]
  IC50: 110 ± 30 nM
CYP3A4
  CYP3A4 IC50 (half-maximal inhibitory concentration): Inactive
Human CYP2C9 [5]
  CYP2C9 IC50 (half-maximal inhibitory concentration): Inactive
Human CYP2D6 [6]
  CYP2D6 IC50 (half-maximal inhibitory concentration): Inactive

## Brc1c2ccccc2c(Br)c2ccccc12 [9,10-Dibromoanthracene]
Human CYP2C19 [1]
  CYP2C19 IC50 (half-maximal inhibitory concentration): Inactive
[2]
  Luciferase IC50 (half-maximal inhibitory concentration): Inactive
Human CYP1A2 [3]; [10]
  IC50: 410 nM
Human CYP1A2 [4]
  CYP1A2 Efficacy (in parenthesis): 0.41 ± 0.27 (-85 ± 6) %
CYP3A4
  CYP3A4 IC50 (half-maximal inhibitory concentration): Inactive
Human CYP2C9 [5]
  CYP2C9 IC50 (half-maximal inhibitory concentration): Inactive
Human CYP2D6 [6]
  CYP2D6 IC50 (half-maximal inhibitory concentration): Inactive

## Brc1cc2ccccc2c2ccccc12 [9-Bromophenanthrene]
Human CYP2C19 [1]
  CYP2C19 Efficacy (in parenthesis): 29.42 ± 9.47 (-107 ± 13) %
Human CYP2C19 [7]; [11]
  IC50: 29400 nM
[2]
  Luciferase IC50 (half-maximal inhibitory concentration): Inactive
Human CYP1A2 [3]; [10]
  IC50: 320 nM
Human CYP1A2 [4]
  CYP1A2 Efficacy (in parenthesis): 0.32 ± 0.09 (-101 ± 1) %
Human CYP2C9 [8]
  IC50: 56800 nM
CYP3A4
  CYP3A4 IC50 (half-maximal inhibitory concentration): Inactive
Human CYP2C9 [5]
  CYP2C9 Efficacy (in parenthesis): 56.84 ± 0 (-53 ± 6) %
Human CYP2D6 [6]
  CYP2D6 IC50 (half-maximal inhibitory concentration): Inactive

## c1ccc2cc3ccccc3cc2c1 [Anthracene]
Human CYP2C19 [7]; CYP2C19 IC50
  IC50: 67000 nM
[2]
  Luciferase IC50: Inactive
Human CYP1A2 [3]; CYP1A2 IC50
  IC50: 500 nM
CYP3A4
  CYP3A4 IC50: Inactive
Human CYP2C9 [5]
  CYP2C9 IC50: Inactive
Human CYP2D6 [6]
  CYP2D6 IC50: Inactive

## O=C1c2ccccc2C(=O)c2ccccc21 [Anthraquinone]
Human CYP2C19 [1]
  CYP2C19 IC50 (half-maximal inhibitory concentration): Inactive
[2]
  Luciferase IC50 (half-maximal inhibitory concentration): Inactive
Human CYP1A2 [3]; [10]
  IC50: 230 nM
Human CYP1A2 [4]
  CYP1A2 Efficacy (in parenthesis): 0.23 ± 0.06 (-96 ± 3) %
CYP3A4
  CYP3A4 IC50 (half-maximal inhibitory concentration): Inactive
Human CYP2C9 [5]
  CYP2C9 IC50 (half-maximal inhibitory concentration): Inactive
Human CYP2D6 [6]
  CYP2D6 IC50 (half-maximal inhibitory concentration): Inactive

## c1cc2ccc3ccc4ccc5cccc6c(c1)c2c3c4c56 [Benzo(g,h,i)perylene]
Human CYP2C19 [1]
  CYP2C19 IC50: Inactive
[2]
  Luciferase IC50: Inactive
Human CYP1A2 [3]; CYP1A2 IC50
  IC50: 160 nM
CYP3A4
  CYP3A4 IC50: Inactive
Human CYP2C9 [5]
  CYP2C9 IC50: Inactive
Human CYP2D6 [6]
  CYP2D6 IC50: Inactive

## c1ccc2cc3c(cc2c1)-c1cccc2cccc-3c12 [Benzo(k)fluoranthene]
Human CYP2C19 [1]
  CYP2C19 IC50: Inactive
[2]
  Luciferase IC50: Inactive
Human CYP1A2 [3]; CYP1A2 IC50
  IC50: 170 nM
CYP3A4
  CYP3A4 IC50: Inactive
Human CYP2C9 [5]
  CYP2C9 IC50: Inactive
Human CYP2D6 [6]
  CYP2D6 IC50: Inactive

## c1ccc2c(c1)ccc1c3ccccc3ccc21 [Chrysene]
Human CYP2C19 [1]
  CYP2C19 IC50: Inactive
[2]
  Luciferase IC50: Inactive
Human CYP1A2 [3]; CYP1A2 IC50
  IC50: 650 nM
CYP3A4
  CYP3A4 IC50: Inactive
Human CYP2C9 [5]
  CYP2C9 IC50: Inactive
Human CYP2D6 [6]
  CYP2D6 IC50: Inactive

## c1ccc2cc3c4ccccc4c4ccccc4c3cc2c1 [Dibenz[a,c]anthracene]
Human CYP2C19 [1]
  CYP2C19 IC50: Inactive
[2]
  Luciferase IC50: Inactive
Human CYP1A2 [3]; CYP1A2 IC50
  IC50: 210 nM
CYP3A4
  CYP3A4 IC50: Inactive
Human CYP2C9 [5]
  CYP2C9 IC50: Inactive
Human CYP2D6 [6]
  CYP2D6 IC50: Inactive

## CCCCOc1ccc(C(=O)CCN2CCCCC2)cc1 [Dyclonine hydrochloride]
Human CYP2D6 [9]; [12]
  AC50: 6920 nM
Human CYP2C9 [8]; CYP2C9 AC50 (half-maximal activity concentration)
  AC50: 14500 nM

## OC(CN1CCC(Cc2ccc(F)cc2)CC1)c1ccc(Cl)cc1 (stereo not shown) [Eliprodil]
Human CYP2D6 [9]; [12]
  AC50: 120 nM
Human CYP2D6 [9]; [13]
  IC50: 120 nM

## CCN(CC)CCN1C(=O)CN=C(c2ccccc2F)c2cc(Cl)ccc21 [Flurazepam]
Human CYP2D6 [9]; [13]
  IC50: 15600 nM

## CCC(=O)O[C@]1(C(=O)SCF)[C@H](C)C[C@H]2[C@@H]3C[C@H](F)C4=CC(=O)C=C[C@]4(C)[C@@]3(F)[C@@H](O)C[C@@]21C [Fluticasone propionate]
Human CYP2D6 [9]; [13]
  IC50: 13000 nM
Human CYP2C9 [8]
  IC50: 4840 nM

## Brc1c(Br)c(Br)c(Br)c(Br)c1Br [Hexabromobenzene]
Human CYP2C19 [1]
  CYP2C19 IC50 (half-maximal inhibitory concentration): Inactive
[2]
  Luciferase IC50 (half-maximal inhibitory concentration): Inactive
Human CYP1A2 [3]; [10]
  IC50: 90 nM
Human CYP1A2 [4]
  CYP1A2 Efficacy (in parenthesis): 0.09 ± 0.01 (-45 ± 9) %
CYP3A4
  CYP3A4 IC50 (half-maximal inhibitory concentration): Inactive
Human CYP2C9 [5]
  CYP2C9 IC50 (half-maximal inhibitory concentration): Inactive
Human CYP2D6 [6]
  CYP2D6 IC50 (half-maximal inhibitory concentration): Inactive

## Cc1nc(N)nc(N)c1-c1ccc(Cl)c(Cl)c1 [Methodichlorophen]
Human CYP2D6 [9]
  AC50: 2300 ± 410 nM

## CC[N+](C)(CC)CCOC(=O)C(O)(c1ccccc1)C1CCCCC1 (stereo not shown) [Oxyphenonium bromide]
Human CYP2D6 [9]; [13]
  IC50: 870 nM

## CC1CCCC(C)N1CCCC(O)(c1ccccc1)c1ccccn1 (stereo not shown) [Pirmenol]
Human CYP2D6 [9]; [13]
  IC50: 920 nM

## CC[C@@H]([C@H](C)O)n1ncn(-c2ccc(N3CCN(c4ccc(OC[C@@H]5CO[C@@](Cn6cncn6)(c6ccc(F)cc6F)C5)cc4)CC3)cc2)c1=O [Posaconazole]
Human CYP2D6 [9]
  IC50: 11300 ± 3600 nM

## CC(C)[N+](C)(CCOC(=O)C1c2ccccc2Oc2ccccc21)C(C)C [Propantheline bromide]
Human CYP2D6 [9]; [12]
  AC50: 190 nM
Human CYP2D6 [9]; [13]
  IC50: 90 nM

## c1ccc2nc(N3CCNCC3)ccc2c1 [Quipazine maleate]
Human CYP2C19 [1]
  CYP2C19 IC50: Inactive
[2]
  Luciferase IC50: Inactive
Human CYP1A2 [3]; CYP1A2 IC50
  IC50: 960 nM
CYP3A4
  CYP3A4 IC50: Inactive
Human CYP2C9 [5]
  CYP2C9 IC50: Inactive
Human CYP2D6 [6]
  CYP2D6 IC50: Inactive

## CC[N+](CC)(CC)CCOc1ccc(/C=C/c2ccccc2)cc1 [Stilonium iodide]
Human CYP2D6 [9]; [12]
  AC50: 15500 nM

## CCOc1ccccc1OCCN[C@H](C)Cc1ccc(OC)c(S(N)(=O)=O)c1 [Tamsulosin hydrochloride]
Human CYP2D6 [9]; [13]
  IC50: 12800 nM

## CCN(CC)C(=O)SCc1ccc(Cl)cc1 [Thiobencarb]
Human CYP2C19 [1]
  CYP2C19 Efficacy (in parenthesis): 0.66 ± 0.12 (-124 ± 7) %
Human CYP2C19 [7]; [11]
  IC50: 660 nM
[2]
  IC50: 38500 nM
Human CYP1A2 [3]; [10]
  IC50: 15900 nM
Human CYP1A2 [4]
  CYP1A2 Efficacy (in parenthesis): 15.89 ± 0 (-91 ± 6) %
Human CYP2C9 [8]
  IC50: 25200 nM
CYP3A4
  CYP3A4 IC50 (half-maximal inhibitory concentration): Inactive
Human CYP2C9 [5]
  CYP2C9 Efficacy (in parenthesis): 25.18 ± 0 (-91 ± 2) %
Human CYP2D6 [6]
  CYP2D6 IC50 (half-maximal inhibitory concentration): Inactive

## COc1ccccc1N1CCN(CCCNc2cc(=O)n(C)c(=O)n2C)CC1 [Urapidil hydrochloride]
Human CYP2D6 [9]; [12]
  AC50: 14000 nM

## CC(CCc1ccccc1)NCC(O)c1ccc(O)c(C(N)=O)c1 (stereo not shown) [labetalol, reference compound]
Human CYP2D6 [9]
  IC50: 600 nM

## ClC(Cl)=C(c1ccc(Cl)cc1)c1ccc(Cl)cc1 [p,p'-DDE]
Human CYP2C19 [1]
  CYP2C19 Efficacy (in parenthesis): 0.57 ± 0.14 (-135 ± 7) %
Human CYP2C19 [7]; [11]
  IC50: 570 nM
[2]
  Luciferase IC50 (half-maximal inhibitory concentration): Inactive
Human CYP1A2 [3]; [10]
  IC50: 3650 nM
Human CYP1A2 [4]
  CYP1A2 Efficacy (in parenthesis): 3.65 ± 1.85 (-100 ± 2) %
Human CYP2C9 [8]
  IC50: 12900 nM
CYP3A4
  CYP3A4 IC50 (half-maximal inhibitory concentration): Inactive
Human CYP2C9 [5]
  CYP2C9 Efficacy (in parenthesis): 12.86 ± 6.41 (-84 ± 11) %
Human CYP2D6 [6]
  CYP2D6 IC50 (half-maximal inhibitory concentration): Inactive

## CC(CN(C)C)CN1c2ccccc2CCc2ccccc21 (stereo not shown) [trimipramine, reference compound]
Human CYP2D6 [9]; IC50 CYP2D6 assay
  IC50: 3100 nM
